{
  "source": "ChEMBL document CHEMBL5678811",
  "about": "(Invest New Drugs, 2014)",
  "key": {"MV4-11 [1]": {"system": "MV4-11", "test": "Cell cycle arrest in human MV4-11 cells assessed as accumulation of cells at S-phase at 0.04 uM measured after 24 hrs by propidium iodide staining based flow cytometry (reference value: 23.35%)", "assay_type": "functional"}, "Calu-6": {"system": "Calu-6", "settings": "Homo sapiens, dose 50.0 mg/kg, route po, time 21.0 day"}, "COLO 205 [2]": {"system": "COLO 205", "settings": "Mus musculus, CD1, dose 50.0 mg/kg, route po"}, "MV4-11 [3]": {"system": "MV4-11", "test": "Cell cycle arrest in human MV4-11 cells assessed as accumulation of cells at S-phase at 0.08 uM measured after 24 hrs by propidium iodide staining based flow cytometry (reference value: 23.35%)", "assay_type": "functional"}, "[4]": {"molecular_target": "Mitogen-activated protein kinase 10 (Homo sapiens) (UniProt P53779)", "sequence (P53779 whole entry)": "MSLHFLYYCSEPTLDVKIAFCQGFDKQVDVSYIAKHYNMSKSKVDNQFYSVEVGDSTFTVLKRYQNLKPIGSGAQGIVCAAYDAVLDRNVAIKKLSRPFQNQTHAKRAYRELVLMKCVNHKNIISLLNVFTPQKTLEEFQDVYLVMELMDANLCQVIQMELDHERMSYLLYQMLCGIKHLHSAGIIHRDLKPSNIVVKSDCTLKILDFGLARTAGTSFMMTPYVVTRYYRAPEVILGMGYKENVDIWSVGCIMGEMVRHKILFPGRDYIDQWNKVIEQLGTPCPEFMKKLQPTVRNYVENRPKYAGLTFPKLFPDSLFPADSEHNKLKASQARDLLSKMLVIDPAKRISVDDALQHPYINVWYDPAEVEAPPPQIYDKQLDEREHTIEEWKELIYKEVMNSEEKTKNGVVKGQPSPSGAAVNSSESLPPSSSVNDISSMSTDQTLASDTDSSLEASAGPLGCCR", "settings": "Sf21, dose 200.0 nM", "description": "Inhibition of recombinant human N-terminal His6-tagged JNK3 expressed in baculovirus infected Sf21 insect cells relative to control"}, "[5]": {"test": "Toxicity in human COLO 205 cells xenografted CD1 nu/nu mouse assessed as change in jejunum histology at 50 mg/kg, po administered daily via gavage for 56 days and measured on day 41 to 69 by histopathological analysis", "assay_type": "organism-based", "settings": "in vivo, 1344 h, time 41-69 day"}, "[6]": {"molecular_target": "T1, Dual specificity tyrosine-phosphorylation-regulated kinase 2 (Homo sapiens) (UniProt Q92630)", "T1 sequence (whole entry)": "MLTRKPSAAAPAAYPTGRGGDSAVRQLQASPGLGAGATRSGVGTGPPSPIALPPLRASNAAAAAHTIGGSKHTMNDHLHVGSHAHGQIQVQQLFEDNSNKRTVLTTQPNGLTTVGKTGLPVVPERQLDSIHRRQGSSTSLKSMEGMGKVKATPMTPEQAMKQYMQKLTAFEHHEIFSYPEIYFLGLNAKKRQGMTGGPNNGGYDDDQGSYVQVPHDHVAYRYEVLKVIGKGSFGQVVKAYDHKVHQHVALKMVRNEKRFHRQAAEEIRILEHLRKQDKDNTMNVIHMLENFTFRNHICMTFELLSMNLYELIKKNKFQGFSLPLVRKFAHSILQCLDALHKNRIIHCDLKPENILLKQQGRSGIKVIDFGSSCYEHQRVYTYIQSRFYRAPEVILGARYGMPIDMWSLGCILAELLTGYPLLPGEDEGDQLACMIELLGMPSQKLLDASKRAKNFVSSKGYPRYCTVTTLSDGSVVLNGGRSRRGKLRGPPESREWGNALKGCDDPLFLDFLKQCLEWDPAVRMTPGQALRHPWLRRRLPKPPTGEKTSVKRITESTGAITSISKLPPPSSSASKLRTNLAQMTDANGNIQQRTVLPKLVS", "settings": "Sf21, dose 200.0 nM", "description": "Inhibition of recombinant human full-length 6His-tagged DYRK2 expressed in baculovirus infected Sf21 insect cells at 200 nM using casein as substrate relative to control"}, "MV4-11 [7]": {"system": "MV4-11", "test": "Cell cycle arrest in human MV4-11 cells assessed as accumulation of cells at G1-phase at 0.16 uM measured after 24 hrs by propidium iodide staining based flow cytometry (reference value: 61.42%)", "assay_type": "functional"}, "COLO 205 [8]": {"system": "COLO 205", "settings": "Homo sapiens, dose 50.0 mg/kg, route po, time > 3.0 weeks", "description": "Antitumor activity against human COLO 205 cells xenografted in CD1 nu/nu mouse assessed as tumor growth inhibition at 50 mg/kg, po administered daily via gavage for 2 cycles of over 3 weeks on/1 week rest"}, "COLO 205 [9]": {"system": "COLO 205", "settings": "Homo sapiens, dose 50.0 mg/kg, route po, time 56.0 day"}, "[10]": {"test": "Toxicity in human COLO 205 cells xenografted CD1 nu/nu mouse assessed as change in cecum histology at 50 mg/kg, po administered daily via gavage for 56 days and measured on day 41 to 69 by histopathological analysis", "assay_type": "organism-based", "settings": "in vivo, 1344 h, time 41-69 day"}, "MV4-11 [11]": {"system": "MV4-11", "test": "Cell cycle arrest in human MV4-11 cells assessed as accumulation of cells at G2/M-phase at 1.25 uM measured after 24 hrs by propidium iodide staining based flow cytometry (reference value: 15.23%)", "assay_type": "functional"}, "[12]": {"test": "Plasma concentration at steady state in human COLO 205 cells xenografted po dosed CD1 nu/nu mouse", "assay_type": "ADME, organism-based", "settings": "in vivo"}, "COLO 205 [13]": {"system": "COLO 205", "settings": "Mus musculus, CD1, dose 50.0 mg/kg, route po", "remark": "listed apart in the source"}, "MV4-11 [14]": {"system": "MV4-11", "test": "Cell cycle arrest in human MV4-11 cells assessed as accumulation of cells at S-phase at 5 uM measured after 24 hrs by propidium iodide staining based flow cytometry (reference value: 23.35%)", "assay_type": "functional"}, "[15]": {"molecular_target": "Receptor-type tyrosine-protein kinase FLT3 (Homo sapiens) (UniProt P36888)", "sequence (P36888 whole entry)": "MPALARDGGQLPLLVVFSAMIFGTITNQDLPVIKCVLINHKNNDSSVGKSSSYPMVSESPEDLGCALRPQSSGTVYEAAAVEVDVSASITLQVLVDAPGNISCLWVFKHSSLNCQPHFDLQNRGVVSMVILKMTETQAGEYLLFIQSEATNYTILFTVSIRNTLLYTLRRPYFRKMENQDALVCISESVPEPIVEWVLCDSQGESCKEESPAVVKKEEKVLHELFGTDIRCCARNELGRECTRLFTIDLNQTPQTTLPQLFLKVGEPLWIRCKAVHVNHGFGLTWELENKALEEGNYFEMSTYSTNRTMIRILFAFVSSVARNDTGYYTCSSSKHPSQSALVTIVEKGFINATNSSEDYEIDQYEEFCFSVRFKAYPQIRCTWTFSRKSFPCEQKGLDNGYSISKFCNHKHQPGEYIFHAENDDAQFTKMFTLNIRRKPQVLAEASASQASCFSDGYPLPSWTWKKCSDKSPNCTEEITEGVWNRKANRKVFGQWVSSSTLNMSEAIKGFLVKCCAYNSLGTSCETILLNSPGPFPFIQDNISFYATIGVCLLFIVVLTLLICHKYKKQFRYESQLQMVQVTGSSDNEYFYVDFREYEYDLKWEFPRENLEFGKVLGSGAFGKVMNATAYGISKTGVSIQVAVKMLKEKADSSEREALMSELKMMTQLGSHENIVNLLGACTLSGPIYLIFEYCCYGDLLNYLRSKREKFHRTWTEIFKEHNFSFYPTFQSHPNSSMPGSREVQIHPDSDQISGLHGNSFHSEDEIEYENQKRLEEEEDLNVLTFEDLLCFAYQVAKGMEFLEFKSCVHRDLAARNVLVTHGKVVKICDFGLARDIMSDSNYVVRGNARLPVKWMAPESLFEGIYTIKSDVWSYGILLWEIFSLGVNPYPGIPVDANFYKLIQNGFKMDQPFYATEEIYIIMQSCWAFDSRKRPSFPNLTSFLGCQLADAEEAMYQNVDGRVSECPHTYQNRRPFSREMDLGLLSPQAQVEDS", "settings": "Sf21, dose 200.0 nM", "description": "Inhibition of recombinant human N-terminal GST-tagged FLT3 (564 to end residues) expressed in baculovirus infected Sf21 cells at 200 nM using Abltide as substrate relative to control"}, "COLO 205 [16]": {"system": "COLO 205", "settings": "Mus musculus, CD1, dose 50.0 mg/kg, route po", "remark": "listed apart in the source"}, "Mus musculus": {"organism": "Mus musculus", "settings": "CD1, dose 50.0 mg/kg, route po, time 22.0 day"}, "[17]": {"test": "Inhibition of recombinant human full-length N-terminal 6His-tagged/beta-subunit N-terminal GST tagged CK2 expressed in Sf21 insect cells at 200 nM using casein kinase 2 substrate peptide relative to control", "settings": "condition cancer"}, "[18]": {"test": "Toxicity in human COLO 205 cells xenografted CD1 nu/nu mouse assessed as body weight loss at 50 mg/kg, po administered daily via gavage for 2 cycles of 3 weeks on/1 week rest", "assay_type": "organism-based", "settings": "in vivo"}, "MV4-11 [19]": {"system": "MV4-11", "test": "Cell cycle arrest in human MV4-11 cells assessed as accumulation of cells at G2/M-phase at 0.32 uM measured after 24 hrs by propidium iodide staining based flow cytometry (reference value: 15.23%)", "assay_type": "functional"}},
  "note": "Active and inactive are the calls of the source. The rule behind the calls is not given here.",
  "data": [
    {"smiles": "CCN1CCN(Cc2ccc(Nc3ncc(F)c(-c4cc(F)c5nc(C)n(C(C)C)c5c4)n3)nc2)CC1", "note": "[ABEMACICLIB]", "values": [
      {"measurement": "Activity", "setting": "MV4-11 [1]", "result": 16.32, "unit": "%"},
      {"measurement": "TGI", "setting": "Calu-6", "result": "Active"},
      {"measurement": "inhibition", "setting": "COLO 205 [2]", "result": "Active"},
      {"measurement": "Activity", "setting": "MV4-11 [3]", "result": 8.59, "unit": "%"},
      {"measurement": "inhibition", "setting": "[4]", "result": "> 90", "unit": "%"},
      {"measurement": "Activity", "setting": "[5]", "result": "Non-Toxic"},
      {"measurement": "inhibition", "setting": "[6]", "result": "> 90", "unit": "%"},
      {"measurement": "Activity", "setting": "MV4-11 [7]", "result": 92.68, "unit": "%"},
      {"measurement": "TGI", "setting": "COLO 205 [8]", "result": "Active"},
      {"measurement": "TGI", "setting": "COLO 205 [9]", "result": "Active"},
      {"measurement": "Activity", "setting": "[10]", "result": "Non-Toxic"},
      {"measurement": "Activity", "setting": "MV4-11 [11]", "result": 1.84, "unit": "%"},
      {"measurement": "Cpss", "setting": "[12]", "result": "~ 400 nM"},
      {"measurement": "inhibition", "setting": "COLO 205 [13]", "result": "inactive"},
      {"measurement": "Activity", "setting": "MV4-11 [14]", "result": 3.9, "unit": "%"},
      {"measurement": "inhibition", "setting": "[15]", "result": "> 90", "unit": "%"},
      {"measurement": "inhibition", "setting": "COLO 205 [16]", "result": "Active"},
      {"measurement": "inhibition", "setting": "Mus musculus", "result": "inactive"},
      {"measurement": "inhibition at 0.2 µM", "setting": "[17]", "result": "> 90", "unit": "%"},
      {"measurement": "Activity", "setting": "[18]", "result": "Non-Toxic"},
      {"measurement": "Activity", "setting": "MV4-11 [19]", "result": 1.82, "unit": "%"}
    ]}
  ]
}
